These results are taken from ChEMBL document CHEMBL1126181, “New nonpeptide angiotensin II receptor antagonists. 1. Synthesis, biological properties, and structure-activity relationships of 2-alkyl benzimidazole derivatives” (J Med Chem, 1992).

SMILES strings stand for the structures.

For one experiment, the target named is Type-1 angiotensin II receptor (Rattus norvegicus) (UniProt P25095). Briefly: The compound was tested for Angiotensin II (AII) antagonist activity in vivo in an AII infused, normotensive rat model upon intravenous administration.
Chain of Type-1 angiotensin II receptor (Rattus norvegicus) (P25095 whole entry, looked up, the tested form may be a part): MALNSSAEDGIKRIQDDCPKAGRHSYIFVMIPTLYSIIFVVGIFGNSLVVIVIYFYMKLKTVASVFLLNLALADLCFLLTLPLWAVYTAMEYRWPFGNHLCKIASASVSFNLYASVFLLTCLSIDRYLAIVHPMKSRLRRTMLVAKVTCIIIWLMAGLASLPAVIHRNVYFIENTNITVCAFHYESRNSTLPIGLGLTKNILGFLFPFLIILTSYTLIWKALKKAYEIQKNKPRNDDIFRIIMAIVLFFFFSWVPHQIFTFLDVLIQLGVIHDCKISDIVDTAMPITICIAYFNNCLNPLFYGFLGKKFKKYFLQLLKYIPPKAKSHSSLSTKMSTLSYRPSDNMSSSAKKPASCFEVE
As to `CCCCc1nc2ccccc2n1Cc1ccc(-c2ccccc2-c2nn[nH]n2)cc1`, the ED50 came out at 5.2 mg/kg.

For the next experiment the target is unchanged. Briefly: The compound was tested for Angiotensin II (AII) antagonist activity in vivo in an […], normotensive rat model upon intravenous administration.
`CCCCCCc1nc2ccccc2n1Cc1ccc(C(=O)O)cc1`: the ED50 is > 20 mg/kg.

For `CCCCc1nc2ccccc2n1Cc1ccc(C(=O)O)cc1Br`, the ED50 was found to be 11.1 mg/kg.

The molecule `CCCCc1nc2cc(F)ccc2n1Cc1ccc(C(=O)O)cc1` yielded an ED50 of 9.1 mg/kg.

With `CCCCc1nc2ccccc2n1Cc1ccc(C(=O)O)cc1`, it took a dose of 12.6 mg/kg to reach the 50% effect level (ED50).

For the molecule `CCCCc1nc2ccccc2n1Cc1ccc(C(=O)O)cc1OC`, the 50% effect level (ED50) was put at a dose of 16.1 mg/kg.

`CCCCc1nc2ccccc2n1Cc1ccc(C(=O)O)c(Br)c1` showed an ED50 of 5 mg/kg.

Broadly, the ED50 is the dose that gives a 50% effect, or the effect in half of the subjects. High values mean weaker potency, low ones greater potency.
